PubChem BioAssay AID520 (NMMLSC, 2006)
Active and inactive are the calls of the source. How the calls were made is not given here.

Target: N-formyl peptide receptor 2 (Homo sapiens) (UniProt P25090)
Assay: concentration-dependent FPRL1 ligand displacement – cell-based, FPR counter-screen, fluorescent ligand, dose response (AID 520)
Conditions: FPRL1-expressing cells, fluorescent ligand binding inhibition; for Ki: measured here: FPRL1 binding Ki

Sequence of N-formyl peptide receptor 2 (Homo sapiens) (P25090 whole entry, looked up): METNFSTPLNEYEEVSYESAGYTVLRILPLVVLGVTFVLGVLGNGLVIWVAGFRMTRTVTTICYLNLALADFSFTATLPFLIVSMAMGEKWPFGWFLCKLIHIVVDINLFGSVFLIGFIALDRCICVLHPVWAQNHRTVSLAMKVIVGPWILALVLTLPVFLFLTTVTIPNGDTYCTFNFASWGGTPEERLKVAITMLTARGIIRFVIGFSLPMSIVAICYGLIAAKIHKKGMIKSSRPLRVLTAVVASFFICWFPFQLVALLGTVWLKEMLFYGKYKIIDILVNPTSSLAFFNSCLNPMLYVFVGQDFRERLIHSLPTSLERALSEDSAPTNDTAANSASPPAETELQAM

Row | Ki | IC50 | Compound
1 | > 40.3 µM |  | COc1ccc(OC)c(NC(=O)C2C3CCC(C3=C(C)C)C2C(=O)O)c1 (stereo unspecified)
2 | > 40.3 µM | > 66.7 µM (inactive) | CCCOc1ccc(C2C(C(=O)c3ccc(C)o3)=C(O)C(=O)N2CCCn2ccnc2)cc1 (stereo unspecified)
3 | > 40.3 µM |  | COc1ccc2cnn(-c3ccccc3)c(=O)c2c1OC
4 | > 40.3 µM |  | COc1ccc(-c2cc(C(F)(F)F)nc(N3CCCCC3)n2)cc1OC
5 | > 40.3 µM |  | COc1ccccc1Oc1c(C)oc2c(CN(C)C)c(O)ccc2c1=O
6 | > 40.3 µM |  | CC1CCN(S(=O)(=O)c2ccc3c(c2)oc(=O)n3CC(=O)NCc2ccc3c(c2)OCO3)CC1
7 | > 40.3 µM |  | CCOC(=O)Cc1cc(=O)n2[nH]c(C)c(-c3ccc(Cl)cc3)c2n1
8 | > 40.3 µM | > 66.7 µM (inactive) | COCCN1C(=O)C(O)=C(C(=O)c2cccs2)C1c1ccccc1 (stereo unspecified)
9 | > 40.3 µM |  | CCOC(=O)c1ccc(NC(=O)Nc2ccc3c4c(cccc24)C(=O)N3CC)cc1
10 | > 40.3 µM | > 66.7 µM (inactive) | Cc1ccsc1C1C2=C(CC(C)(C)CC2=O)Nc2ncnn21 (stereo unspecified)
11 | > 40.3 µM | > 66.7 µM (inactive) | Cc1ccc(/C(O)=C2/C(=O)C(=O)N(CCN3CCOCC3)C2c2cccnc2)cc1 (stereo unspecified)
12 | 6.7 µM |  | CCOC(=O)CSc1nnc(CNC(=O)c2cc(OCC)c(OCC)c(OCC)c2)n1C
13 | > 40.3 µM |  | CCc1nn2c(=O)cc(CSc3nc4sc5c(c4c(=O)n3C)CCCC5)nc2s1
14 | > 40.3 µM |  | CCOC(=O)N1CCC(NC(=O)c2cc(C(=O)Nc3ccc(OC)c(OC)c3)ccc2CO)CC1
15 | > 40.3 µM | > 66.7 µM (inactive) | CCOc1cc(C2C(C(=O)c3ccco3)=C(O)C(=O)N2CCc2ccccc2)ccc1O (stereo unspecified)
16 | > 40.3 µM |  | Fc1ccc(-c2nnc3ccc(N4CCCC4)nn23)cc1
17 | > 40.3 µM |  | CCOC(=O)c1c(C)[nH]c(C=Nc2ccccc2)c1O
18 | 13.8 µM |  | CCCC(=O)Nc1cc(-c2cn3cccnc3n2)ccc1OC
19 | 30.1 µM |  | CCOC(=O)N1CCN(c2cc(NCCC(=O)O)c3c4c(onc24)-c2ccccc2C3=O)CC1
20 | > 40.3 µM |  | CC(=O)SCC(=O)N=c1sc2cc(F)ccc2n1C
21 | > 40.3 µM |  | CCCc1nc2ccccc2c2nc(N)nn12
22 | > 40.3 µM |  | CCC(CCC(=O)Nc1cccc(C(=O)O)c1)C(=O)O (stereo unspecified)
23 | > 40.3 µM | > 66.7 µM (inactive) | Cc1cc(N2C(=O)C(O)=C(C(=O)c3ccco3)C2c2cccnc2)no1 (stereo unspecified)
24 | > 40.3 µM |  | O=C(NC1CCCC1)c1sc(=S)n2c1[nH]c(=O)c1ccccc12

Row | Ki | IC50 | Compound
25 | > 40.3 µM |  | CC1(C)S[C@@H]2[C@H](NC(=O)C(C(=O)O)c3ccccc3)C(=O)N2[C@H]1C(=O)O (stereo partly specified)
26 | > 40.3 µM |  | CCc1c(C)nc2c(C#N)c(C)[nH]n2c1=O
27 | > 40.3 µM |  | COCCN1Cc2cccc(C(=O)NCc3ccc4c(c3)OCO4)c2C1=O
28 | > 40.3 µM |  | CN(C)c1nc(N(C)C)nc(N(C)C)n1
29 | > 40.3 µM | > 66.7 µM (inactive) | COc1ccc(OC)c(C2C(C(=O)c3cccs3)=C(O)C(=O)N2c2cc(C)on2)c1 (stereo unspecified)
30 | > 40.3 µM |  | COc1ccccc1-n1c(CNC(=O)c2ccco2)nnc1SCC(=O)Nc1ccc(F)cc1
31 | > 40.3 µM | > 66.7 µM (inactive) | COCCCN1C(=O)C(=O)/C(=C(/O)c2ccc(OC)cc2C)C1c1cccnc1 (stereo unspecified)
32 | > 40.3 µM | > 66.7 µM (inactive) | Cc1nc(C)c(C(=O)C2=C(O)C(=O)N(CCCn3ccnc3)C2c2ccc(Cl)cc2)s1 (stereo unspecified)
33 | > 40.3 µM |  | N#Cc1c(C(F)(F)F)cc(-c2ccccc2)nc1SCc1nc(N)nc(N2CCOCC2)n1
34 | > 40.3 µM | > 66.7 µM (inactive) | O=C1C(CCS(=O)c2ccccc2)C(=O)N(c2ccccc2)N1c1ccccc1 (stereo unspecified)
35 | > 40.3 µM |  | COc1ccc(OC)c(C(=O)c2nc3c(n2O)CCCCC3)c1
36 | > 40.3 µM |  | Cc1nn(-c2nc3ccccc3s2)c(C)c1Oc1ccccc1O
37 | > 40.3 µM |  | CCOC(=O)c1oc2cc(O)ccc2c(=O)c1-c1ccccc1OC
38 | > 40.3 µM | > 66.7 µM (inactive) | COc1ccc(C2C(C(=O)c3cccs3)=C(O)C(=O)N2c2nnc(C)s2)cc1OC (stereo unspecified)
39 | > 40.3 µM |  | Clc1ccc(C2CC(c3cccs3)n3ncnc3N2)cc1Cl (stereo unspecified)
40 | > 40.3 µM | > 66.7 µM (inactive) | COc1cc(C2C(C(=O)c3cccs3)=C(O)C(=O)N2Cc2ccco2)cc(OC)c1OC (stereo unspecified)
41 | > 40.3 µM | > 66.7 µM (inactive) | Cc1ccc(C)c(/C(O)=C2\C(=O)C(=O)N(CCCn3ccnc3)C2c2ccncc2)c1 (stereo unspecified)
42 | > 40.3 µM | > 66.7 µM (inactive) | O=C(C1=C(O)C(=O)N(c2ncccn2)C1c1cccc(Cl)c1)c1ccco1 (stereo unspecified)
43 | > 40.3 µM | > 66.7 µM (inactive) | CCCOc1ccc(C2C(C(=O)c3ccc(C)o3)=C(O)C(=O)N2Cc2cccnc2)cc1 (stereo unspecified)
44 | > 40.3 µM |  | COC(=O)C1(S(=O)(=O)c2cccc3nsnc23)CC1
45 | > 40.3 µM |  | COc1ccc(-c2nnc(Nc3nc4c(OC)cccc4s3)o2)cc1
46 | > 40.3 µM | > 66.7 µM (inactive) | Cc1ccc(C2C3=C(CC(C)(C)CC3=O)Nc3[nH]c(=S)[nH]c(=O)c32)cc1 (stereo unspecified)
47 | > 40.3 µM |  | COc1ccc(NC(=O)C2C3CCC(C3)C2C(=O)O)cc1OC (stereo unspecified)
48 | > 40.3 µM |  | COc1ccc2nc(Nc3nc(C)c(C(C)=O)s3)sc2c1

Row | Ki | IC50 | Compound
49 | > 40.3 µM | > 66.7 µM (inactive) | Cc1ccc(C2/C(=C(/O)c3ccc(Cl)cc3)C(=O)C(=O)N2CC2CCCO2)o1 (stereo unspecified)
50 | > 40.3 µM | > 66.7 µM (inactive) | O=C(C1=C(O)C(=O)N(Cc2ccco2)C1c1ccccc1)c1cccs1 (stereo unspecified)
51 | > 40.3 µM |  | COc1ccc(C)cc1NC(=O)C1CCCCC1C(=O)O (stereo unspecified)
52 | > 40.3 µM |  | CCOC(=O)CCn1nc(-c2ccc(Cl)cc2)cc1N
53 | > 40.3 µM | > 66.7 µM (inactive) | COCCCN1C(=O)C(O)=C(C(=O)c2ccco2)C1c1ccc(Br)cc1 (stereo unspecified)
54 | > 40.3 µM |  | O=c1cc(-c2ccccc2)nc(N2CCN(Cc3ccccc3)CC2)[nH]1
55 | > 40.3 µM | > 66.7 µM (inactive) | CCOc1cccc(/C(O)=C2/C(=O)C(=O)N(Cc3cccnc3)C2c2ccco2)c1 (stereo unspecified)
56 | > 40.3 µM |  | Cc1csc(NC(=O)CCn2c(=O)oc3ccccc32)n1
57 | > 40.3 µM |  | O=C(NCCCN1CCN(c2ccc(F)cc2)CC1)c1cccc(N2CCCC2=O)c1
58 | > 40.3 µM | > 66.7 µM (inactive) | COCCCN1C(=O)C(=O)/C(=C(/O)c2ccccc2)C1c1ccc2c(c1)OCO2 (stereo unspecified)
59 | > 40.3 µM |  | Cc1cccc(OCC(=O)Nc2cc(C)ccc2O)c1
60 | > 40.3 µM |  | Cc1sc(NC(=O)C2CCCCC2C(=O)O)c(C(N)=O)c1-c1ccc(C(C)(C)C)cc1 (stereo unspecified)
61 | > 40.3 µM | > 66.7 µM (inactive) | Cc1nc2c(C)cccn2c1/C(O)=C1\C(=O)C(=O)N(CCN2CCOCC2)C1c1cccs1 (stereo unspecified)
62 | > 40.3 µM | > 66.7 µM (inactive) | COC(=O)c1[nH]c(C)c(/C(O)=C2\C(=O)C(=O)N(CCN3CCOCC3)C2c2cccnc2)c1C (stereo unspecified)
63 | > 40.3 µM | > 66.7 µM (inactive) | O=C(C1=C(O)C(=O)N(CCN2CCOCC2)C1c1ccccc1)c1cccs1 (stereo unspecified)
64 | > 40.3 µM | > 66.7 µM (inactive) | COc1cc(C2C(C(=O)c3ccc(C)o3)=C(O)C(=O)N2Cc2cccnc2)ccc1O (stereo unspecified)
65 | > 40.3 µM | > 66.7 µM (inactive) | COC(=O)c1[nH]c(C)c(/C(O)=C2\C(=O)C(=O)N(CCN3CCOCC3)C2c2cccs2)c1C (stereo unspecified)
66 | > 40.3 µM | > 66.7 µM (inactive) | CCOc1ccc(C2C(C(=O)c3ccco3)=C(O)C(=O)N2CCCn2ccnc2)cc1 (stereo unspecified)
67 | > 40.3 µM |  | COc1ccc(-c2nc(N3CCCC3)[nH]c(=O)c2C#N)cc1
68 | > 40.3 µM |  | O=C(O)CC1Oc2ccc(Cl)cc2NC1=O (stereo unspecified)
69 | > 40.3 µM | > 66.7 µM (inactive) | CCOc1ccc(/C(O)=C2/C(=O)C(=O)N(CC3CCCO3)C2c2ccc(C)o2)cc1 (stereo unspecified)
70 | > 40.3 µM |  | Cc1[nH]n2c(=O)c(C#N)c(-c3ccccc3)nc2c1-c1ccccc1
71 | > 40.3 µM | > 66.7 µM (inactive) | O=C(C1=C(O)C(=O)N(CC2CCCO2)C1c1cccnc1)c1ccco1 (stereo unspecified)
72 | > 40.3 µM |  | Cc1ccc(F)c(NC(=O)C2CCCCC2C(=O)O)c1 (stereo unspecified)

Row | Ki | IC50 | Compound
73 | > 40.3 µM |  | COc1ccc2ccccc2c1C1CC(=O)N2CN(C3CCCCC3)CSC2=C1C#N (stereo unspecified)
74 | > 40.3 µM |  | O=C(Cn1c(=O)oc2ccccc21)N1CCN(c2ccccc2)CC1
75 | > 40.3 µM | > 66.7 µM (inactive) | O=C(C1=C(O)C(=O)N(c2ncccn2)C1c1ccc(Cl)c(Cl)c1)c1ccco1 (stereo unspecified)
76 | > 40.3 µM |  | COc1ccc(Cl)cc1-n1c(=S)sc2c(=O)[nH]c(SCC(=O)NCC3CCCO3)nc21 (stereo unspecified)
77 | > 40.3 µM |  | CCCOc1ccc2c(=O)c(N3C(=O)c4ccccc4C3=O)c(C)oc2c1
78 | 6.6 µM |  | O=C(O)CCCNc1cc(N2CCC3(CC2)OCCO3)c2noc3c2c1C(=O)c1ccccc1-3
79 | > 40.3 µM |  | Cc1ccccc1Nc1cc2ccccc2c(=O)[nH]1
80 | 9.1 µM |  | Nc1ccc(Nc2ccccc2N)cc1
81 | > 40.3 µM |  | Cc1ccc(NC(=O)C2CCCN2S(=O)(=O)c2cccc3cccnc23)cc1F (stereo unspecified)
82 | > 40.3 µM | > 66.7 µM (inactive) | COc1cccc(OC)c1/C(O)=C(\C#N)c1nc2ccccc2[nH]1
83 | > 40.3 µM | > 66.7 µM (inactive) | O=C(C1=C(O)C(=O)N(Cc2ccccc2)C1c1ccco1)c1ccco1 (stereo unspecified)
84 | > 40.3 µM | > 66.7 µM (inactive) | COc1cc(C2/C(=C(\O)c3ccc4c(c3)CC(C)O4)C(=O)C(=O)N2CCCn2ccnc2)ccc1O (stereo unspecified)
85 | > 40.3 µM | > 66.7 µM (inactive) | CCOc1ccc(/C(O)=C2/C(=O)C(=O)N(CC3CCCO3)C2c2ccco2)cc1 (stereo unspecified)
86 | > 40.3 µM |  | COc1ccc(S(=O)(=O)NC(C)C(=O)Nc2cccc(C(C)=O)c2)cc1 (stereo unspecified)
87 | > 40.3 µM |  | Cc1c(C(=O)NC2CCCc3ccccc32)oc2ccc(S(=O)(=O)N3CCOCC3)cc12 (stereo unspecified)
88 | 19.1 µM |  | Cc1[nH]n2c(=O)cc(-c3ccc([N+](=O)[O-])cc3)nc2c1-c1ccccc1
89 | > 40.3 µM | > 66.7 µM (inactive) | O=C(C1=C(O)C(=O)N(Cc2ccccc2)C1c1cccnc1)c1ccco1 (stereo unspecified)
90 | > 40.3 µM |  | O=C(O)C1CCCCC1C(=O)Nc1ccccc1Cl (stereo unspecified)
91 | > 40.3 µM |  | Cc1nc2c(C#N)c[nH]n2c(=O)c1Cc1ccccc1
92 | > 40.3 µM |  | COC(=O)COc1ccc2c(=O)c(Oc3ccccc3)c(C)oc2c1
93 | > 40.3 µM | > 66.7 µM (inactive) | O=C(C1=C(O)C(=O)N(CCc2ccccc2)C1c1cccnc1)c1ccco1 (stereo unspecified)
94 | > 40.3 µM | > 66.7 µM (inactive) | CCOc1ccc(C2C(C(=O)c3ccco3)=C(O)C(=O)N2Cc2cccnc2)cc1 (stereo unspecified)
